According to US11117947B2, “Double-acylated GLP-1 derivatives” (Novo Nordisk A/S, priority 2011, dated 2021):
Where two headings read alike, the source gives them in different places. Numbered stars: 1 amine (or outer) side, 2 acyl side, 3 side chain; on linkers, the order of the positions; unused ones are H or OH. Side chains are listed from the residue outwards. Peptide text beside a SMILES is read from it. * marks the point of attachment. Decanoyl(10-(4-HOOC-PhO)) = O=C(O)c1ccc(OCCCCCCCCCC(=O)*)cc1; γGlu = O=C(O)[C@H](CCC(=O)[*:2])N[*:1]; C14 diacid = O=C(O)CCCCCCCCCCCCC(=O)*; AEEA = NCCOCCOCC(=O)O

Target: T1, human GLP-1 receptor (Homo sapiens, UniProt P43220)
T1 construct: expressed in transfected cells; membranes
Assay: GLP-1 receptor binding: displacement of 125I-GLP-1 (SPA) at low and high albumin
Protocol: The purpose of this experiment is to investigate the binding to the GLP-1 receptor of the GLP-1 derivatives, and how the binding is potentially influenced by the presence of albumin. This is done in an in vitro experiment as described below.
In order to test the binding of the derivatives to albumin, the assay was performed with a low concentration of albumin (0.001%—corresponding to the residual amount thereof in the tracer), as well as with a high concentration of albumin (2.0% added). A shift in the binding affinity, IC50, is an indication that the peptide in question binds to albumin, and thereby a prediction of a potential protracted pharmacokinetic profile of the peptide in question in animal models.
Species (in vitro): Hamster
Biological End Point: Receptor Binding
A stable transfected cell line and a high expressing clone were selected for screening. The cells were grown at 5% CO2 in DMEM, 10% FCS, 1% Pen/Strep (Penicillin/Streptomycin) and 1.0 mg/ml of the selection marker G418.
The cells (approx. 80% confluence) were washed twice in PBS and harvested with Versene (aqueous solution of the tetrasodium salt of ethylenediaminetetraacetic acid), following which they were separated by centrifugation at 1000 rpm for 5 min. The cells/cell pellet must be kept on ice to the extent possible in the subsequent steps. The cell pellet was homogenised with Ultrathurrax for 20-30 seconds in a suitable amount of Buffer 1 (depending on the amount of cells, but e.g. 10 ml). The homogenate was centrifuged at 20000 rpm for 15 minutes. The pellet was resuspended (homogenised) in 10 ml Buffer 2 and re-centrifuged. This step was repeated once more. The resulting pellet was resuspended in Buffer 2, and the protein concentration was determined. The membranes were stored at minus 80° C.
Buffer 1: 20 mM Na-HEPES+10 mM EDTA, pH 7.4
Buffer 2: 20 mM Na-HEPES+0.1 mM EDTA, pH 7.4
Test compounds, membranes, SPA-particles and [^125I]-GLP-1(7-36)NH2 were diluted in assay buffer. 50 ul (micro liter) HSA (“high albumin” experiment containing 2% HSA), or buffer (“low albumin” experiment containing 0.001% HSA), was added to Optiplate, and 25 ul of test compounds were added. 5-10 ug membrane protein/sample was added (50 ul) corresponding to 0.1-0.2 mg protein/ml (to be preferably optimised for each membrane preparation). SPA-particles (Wheatgerm agglutinin SPA beads, Perkin Elmer, #RPNQ0001) were added in an amount of 0.5 mg/well (50 ul). The incubation was started with [^125I]-GLP-1]-(7-36)NH2 (final concentration 0.06 nM corresponding to 49.880 DPM, 25 ul). The plates were sealed with PlateSealer and incubated for 120 minutes at 30° C. while shaking. The plates were centrifuged (1500 rpm, 10 min) and counted in Topcounter.

[1] = low albumin, 0.001% HSA, read-out: IC50/nM (low HSA)
[2] = high albumin, 2.0% HSA, read-out: IC50/nM (high HSA)

T1 sequence (P43220 24-463): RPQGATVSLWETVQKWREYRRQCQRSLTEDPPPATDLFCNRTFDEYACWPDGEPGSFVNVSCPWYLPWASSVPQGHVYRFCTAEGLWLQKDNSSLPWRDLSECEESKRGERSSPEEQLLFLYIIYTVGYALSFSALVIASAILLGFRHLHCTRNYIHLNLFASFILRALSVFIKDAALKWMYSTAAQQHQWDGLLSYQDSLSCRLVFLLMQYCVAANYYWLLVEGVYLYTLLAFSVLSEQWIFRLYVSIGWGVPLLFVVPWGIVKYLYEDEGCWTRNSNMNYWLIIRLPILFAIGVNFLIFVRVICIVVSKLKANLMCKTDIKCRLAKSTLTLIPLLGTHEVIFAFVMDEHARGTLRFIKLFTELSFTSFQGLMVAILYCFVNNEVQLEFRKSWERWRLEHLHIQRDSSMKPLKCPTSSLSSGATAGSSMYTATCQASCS

IC50 [2] [nM] | SMILES | IC50 [1] [nM]
 | CC[C@H](C)[C@H](NC(=O)[C@H](Cc1ccccc1)NC(=O)[C@H](CCCCNC(=O)COCCOCCNC(=O)COCCOCCNC(=O)CC[C@H](NC(=O)CCCCCCCCCOc1ccc(C(=O)O)cc1)C(=O)O)NC(=O)[C@H](CCCNC(=N)N)NC(=O)[C@H](C)NC(=O)[C@H](C)NC(=O)[C@H](CCC(N)=O)NC(=O)[C@H](CCC(=O)O)NC(=O)[C@H](CCC(=O)O)NC(=O)[C@H](CC(C)C)NC(=O)[C@H](Cc1ccc(O)cc1)NC(=O)[C@H](CO)NC(=O)[C@H](CO)NC(=O)[C@@H](NC(=O)[C@H](CC(=O)O)NC(=O)[C@H](CO)NC(=O)[C@@H](NC(=O)[C@H](Cc1ccccc1)NC(=O)[C@@H](NC(=O)CNC(=O)[C@H](CCC(=O)O)NC(=O)[C@H](C)NC(=O)[C@@H](N)Cc1c[nH]cn1)[C@@H](C)O)[C@@H](C)O)C(C)C)C(=O)N[C@@H](C)C(=O)N[C@@H](Cc1c[nH]c2ccccc12)C(=O)N[C@@H](CC(C)C)C(=O)N[C@H](C(=O)N[C@@H](CCCNC(=N)N)C(=O)NCC(=O)N[C@@H](CCCNC(=N)N)C(=O)N[C@@H](CCCCNC(=O)COCCOCCNC(=O)COCCOCCNC(=O)CC[C@H](NC(=O)CCCCCCCCCOc1ccc(C(=O)O)cc1)C(=O)O)C(=O)O)C(C)C [Example 1, N^ε27-[2-[2-[2-[[2-[2-[2-[[(4S)-4-carboxy-4-[10-(4-carboxyphenoxy)decanoylamino]butanoyl]amino]ethoxy]ethoxy]acetyl]amino]ethoxy]ethoxy]acetyl], N^ε37-[2-[2-[2-[[2-[2-[2-[[(4S)-4-carboxy-4-[10-(4-carboxyphenoxy)decanoylamino]butanoyl]amino]ethoxy]ethoxy]acetyl]amino]ethoxy]ethoxy]acetyl]-[Glu^22,Arg^26,Lys^27,Arg^34,Lys^37]-GLP-1-(7-37)-peptide] (H-HAEGTFTSDVSSYLEEQAARK([AEEA-AEEA-γGlu-Decanoyl(10-(4-HOOC-PhO))])FIAWLVRGRK([AEEA-AEEA-γGlu-Decanoyl(10-(4-HOOC-PhO))])-OH; N-terminus and C-terminus assumed) | 0.19
> 1000 | CC[C@H](C)[C@H](NC(=O)[C@H](Cc1ccccc1)NC(=O)[C@H](CCCCNC(=O)CC[C@H](NC(=O)COCCOCCNC(=O)COCCOCCNC(=O)CCCCCCCCCCCCC(=O)O)C(=O)O)NC(=O)[C@H](CCCNC(=N)N)NC(=O)[C@@H](NC(=O)[C@H](CCCCNC(=O)CC[C@H](NC(=O)COCCOCCNC(=O)COCCOCCNC(=O)CCCCCCCCCCCCC(=O)O)C(=O)O)NC(=O)[C@H](CCC(N)=O)NC(=O)[C@H](CCC(=O)O)NC(=O)[C@H](CCC(=O)O)NC(=O)[C@H](CC(C)C)NC(=O)[C@H](Cc1ccc(O)cc1)NC(=O)[C@H](CO)NC(=O)[C@H](CO)NC(=O)[C@@H](NC(=O)[C@H](CC(=O)O)NC(=O)[C@H](CO)NC(=O)[C@@H](NC(=O)[C@H](Cc1ccccc1)NC(=O)[C@@H](NC(=O)CNC(=O)[C@H](CCC(=O)O)NC(=O)[C@H](C)NC(=O)[C@@H](N)Cc1c[nH]cn1)[C@@H](C)O)[C@@H](C)O)C(C)C)C(C)C)C(=O)N[C@@H](C)C(=O)N[C@@H](Cc1c[nH]c2ccccc12)C(=O)N[C@@H](CC(C)C)C(=O)N[C@H](C(=O)NCC(=O)O)C(C)C [Example 30, N^ε24-[(4S)-4-carboxy-4-[[2-[2-[2-[[2-[2-[2-(13-carboxytridecanoylamino)ethoxy]ethoxy]acetyl]amino]ethoxy]ethoxy]acetyl]amino]butanoyl], N^ε27-[(4S)-4-carboxy-4-[[2-[2-[2-[[2-[2-[2-(13-carboxytridecanoylamino)ethoxy]ethoxy]acetyl]amino]ethoxy]ethoxy]acetyl]amino]butanoyl]-[Glu^22,Lys^24, Val^25, Arg^26, Lys^27,Gly^34]-GLP-1-(7-34)-peptide] (H-HAEGTFTSDVSSYLEEQK([γGlu-AEEA-AEEA-C14 diacid])VRK([γGlu-AEEA-AEEA-C14 diacid])FIAWLVG-OH) | 
> 1000 | CC[C@H](C)[C@H](NC(=O)[C@H](Cc1ccccc1)NC(=O)[C@H](CCCCNC(=O)COCCOCCNC(=O)COCCOCCNC(=O)CC[C@H](NC(=O)CCCCCCCCCCCCC(=O)O)C(=O)O)NC(=O)[C@H](CCCNC(=N)N)NC(=O)[C@@H](NC(=O)[C@H](CCCCNC(=O)COCCOCCNC(=O)COCCOCCNC(=O)CC[C@H](NC(=O)CCCCCCCCCCCCC(=O)O)C(=O)O)NC(=O)[C@H](CCC(N)=O)NC(=O)[C@H](CCC(=O)O)NC(=O)[C@H](CCC(=O)O)NC(=O)[C@H](CC(C)C)NC(=O)[C@H](Cc1ccc(O)cc1)NC(=O)[C@H](CO)NC(=O)[C@H](CO)NC(=O)[C@@H](NC(=O)[C@H](CC(=O)O)NC(=O)[C@H](CO)NC(=O)[C@@H](NC(=O)[C@H](Cc1ccccc1)NC(=O)[C@@H](NC(=O)CNC(=O)[C@H](CCC(=O)O)NC(=O)[C@H](C)NC(=O)[C@@H](N)Cc1c[nH]cn1)[C@@H](C)O)[C@@H](C)O)C(C)C)C(C)C)C(=O)N[C@@H](C)C(=O)N[C@@H](Cc1c[nH]c2ccccc12)C(=O)N[C@@H](CC(C)C)C(=O)N[C@H](C(=O)NCC(=O)O)C(C)C [Example 27, N^ε24-[2-[2-[2-[[2-[2-[2-[[(4S)-4-carboxy-4-(13-carboxytridecanoylamino)butanoyl]amino]ethoxy]ethoxy]acetyl]amino]ethoxy]ethoxy]acetyl], N^ε27-[2-[2-[2-[[2-[2-[2-[[(4S)-4-carboxy-4-(13-carboxytridecanoylamino)butanoyl]amino]ethoxy]ethoxy]acetyl]amino]ethoxy]ethoxy]acetyl]-[Glu^22,Lys^24, Val^25, Arg^26, Lys^27,Gly^34]-GLP-1-(7-34)-peptide] (H-HAEGTFTSDVSSYLEEQK([AEEA-AEEA-γGlu-C14 diacid])VRK([AEEA-AEEA-γGlu-C14 diacid])FIAWLVG-OH) | 

SMILES | IC50 [2] [nM] | IC50 [1] [nM]
CC[C@H](C)[C@H](NC(=O)[C@H](Cc1ccccc1)NC(=O)[C@H](CCCCNC(=O)COCCOCCNC(=O)COCCOCCNC(=O)CC[C@H](NC(=O)CCCCCCCCCOc1ccc(C(=O)O)cc1)C(=O)O)NC(=O)[C@H](CCCNC(=N)N)NC(=O)[C@@H](NC(=O)[C@H](CCCCNC(=O)COCCOCCNC(=O)COCCOCCNC(=O)CC[C@H](NC(=O)CCCCCCCCCOc1ccc(C(=O)O)cc1)C(=O)O)NC(=O)[C@H](CCC(N)=O)NC(=O)[C@H](CCC(=O)O)NC(=O)[C@H](CCC(=O)O)NC(=O)[C@H](CC(C)C)NC(=O)[C@H](Cc1ccc(O)cc1)NC(=O)[C@H](CO)NC(=O)[C@H](CO)NC(=O)[C@@H](NC(=O)[C@H](CC(=O)O)NC(=O)[C@H](CO)NC(=O)[C@@H](NC(=O)[C@H](Cc1ccccc1)NC(=O)[C@@H](NC(=O)CNC(=O)[C@H](CCC(=O)O)NC(=O)[C@H](C)NC(=O)[C@@H](N)Cc1c[nH]cn1)[C@@H](C)O)[C@@H](C)O)C(C)C)C(C)C)C(=O)N[C@@H](C)C(=O)N[C@@H](Cc1c[nH]c2ccccc12)C(=O)N[C@@H](CC(C)C)C(=O)N[C@H](C(=O)N[C@@H](CCCNC(=N)N)C(=O)NCC(=O)N[C@@H](CCCNC(=N)N)C(=O)NCC(=O)O)C(C)C [Example 28, N^ε24-[2-[2-[2-[[2-[2-[2-[[(4S)-4-carboxy-4-[10-(4-carboxyphenoxy)decanoylamino]butanoyl]amino]ethoxy]ethoxy]acetyl]amino]ethoxy]ethoxy]acetyl], N^ε27-[2-[2-[2-[[2-[2-[2-[[(4S)-4-carboxy-4-[10-(4-carboxyphenoxy)decanoylamino]butanoyl]amino]ethoxy]ethoxy]acetyl]amino]ethoxy]ethoxy]acetyl]-[Glu^22,Lys^24,Val^25,Arg^26,Lys^27,Arg^34]-GLP-1-(7-37)-peptide] (H-HAEGTFTSDVSSYLEEQK([AEEA-AEEA-γGlu-Decanoyl(10-(4-HOOC-PhO))])VRK([AEEA-AEEA-γGlu-Decanoyl(10-(4-HOOC-PhO))])FIAWLVRGRG-OH; N-terminus and C-terminus assumed) | 29 | 0.2
